Legend:
[1] = molecular target: Epidermal growth factor receptor (Homo sapiens, UniProt P00533, C797S/EX19DEL/T790M); test: Inhibition of EGFR Del19/T790M/C797S mutant (unknown origin) phosphorylation
[2] = molecular target: Epidermal growth factor receptor (Homo sapiens, UniProt P00533, C797S/L858R/T790M); test: Inhibition of EGFR L858R/T790M/C797S mutant (unknown origin) phosphorylation
[3] = molecular target: Epidermal growth factor receptor (Homo sapiens, UniProt P00533); test: Inhibition of wild-type EGFR (unknown origin) phosphorylation
Sequence of Epidermal growth factor receptor (Homo sapiens, UniProt P00533) (P00533 whole entry): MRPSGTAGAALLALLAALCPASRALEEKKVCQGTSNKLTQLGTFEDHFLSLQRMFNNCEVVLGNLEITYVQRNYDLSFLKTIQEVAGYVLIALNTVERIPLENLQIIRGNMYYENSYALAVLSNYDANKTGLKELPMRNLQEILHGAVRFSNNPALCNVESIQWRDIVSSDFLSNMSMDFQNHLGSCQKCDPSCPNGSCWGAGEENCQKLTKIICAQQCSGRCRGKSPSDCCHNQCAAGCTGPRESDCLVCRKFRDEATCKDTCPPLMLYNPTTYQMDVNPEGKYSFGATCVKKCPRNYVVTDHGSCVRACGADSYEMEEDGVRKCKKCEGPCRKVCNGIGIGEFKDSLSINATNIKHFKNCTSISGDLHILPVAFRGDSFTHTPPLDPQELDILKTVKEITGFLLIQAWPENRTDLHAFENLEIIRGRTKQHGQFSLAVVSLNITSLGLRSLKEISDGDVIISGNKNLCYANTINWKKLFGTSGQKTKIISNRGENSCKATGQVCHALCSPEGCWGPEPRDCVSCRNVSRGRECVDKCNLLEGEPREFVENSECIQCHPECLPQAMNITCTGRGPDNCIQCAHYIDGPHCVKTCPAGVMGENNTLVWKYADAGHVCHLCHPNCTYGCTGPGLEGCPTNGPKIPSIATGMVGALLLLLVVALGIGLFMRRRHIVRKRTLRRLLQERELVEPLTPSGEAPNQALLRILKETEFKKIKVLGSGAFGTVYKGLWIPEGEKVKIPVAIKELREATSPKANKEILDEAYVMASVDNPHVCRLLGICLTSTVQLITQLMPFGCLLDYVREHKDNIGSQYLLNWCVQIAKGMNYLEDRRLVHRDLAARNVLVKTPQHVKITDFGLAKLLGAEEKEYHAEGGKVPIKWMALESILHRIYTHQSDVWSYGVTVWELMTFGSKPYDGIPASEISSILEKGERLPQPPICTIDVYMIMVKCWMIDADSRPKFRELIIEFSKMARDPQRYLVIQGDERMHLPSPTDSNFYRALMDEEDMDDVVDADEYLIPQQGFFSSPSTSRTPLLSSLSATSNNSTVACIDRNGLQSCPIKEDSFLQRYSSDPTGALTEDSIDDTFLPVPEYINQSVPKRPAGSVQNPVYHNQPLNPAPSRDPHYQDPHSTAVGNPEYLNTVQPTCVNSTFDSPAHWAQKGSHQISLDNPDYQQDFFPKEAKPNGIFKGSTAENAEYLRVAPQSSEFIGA

BaF3 [4] = test: Inhibition of cell proliferation of mouse BaF3 cells expressing EGFR Del19/T790M/C797S mutant (unknown origin); assay type: functional
BaF3 [5] = test: Inhibition of cell proliferation of mouse BaF3 cells expressing EGFR L858R/T790M/C797S mutant (unknown origin); assay type: functional
BaF3 [6] = test: Inhibition of cell proliferation of mouse BaF3 cells expressing wild-type EGFR (unknown origin); assay type: functional

Sequence of Epidermal growth factor receptor (Homo sapiens, UniProt P00533, C797S/EX19DEL/T790M) (P00533 whole entry, looked up, stated change not applied): as the sequence (P00533 whole entry) above
Sequence of Epidermal growth factor receptor (Homo sapiens, UniProt P00533, C797S/L858R/T790M) (P00533 25-1210 T790M/C797S/L858R limits assumed): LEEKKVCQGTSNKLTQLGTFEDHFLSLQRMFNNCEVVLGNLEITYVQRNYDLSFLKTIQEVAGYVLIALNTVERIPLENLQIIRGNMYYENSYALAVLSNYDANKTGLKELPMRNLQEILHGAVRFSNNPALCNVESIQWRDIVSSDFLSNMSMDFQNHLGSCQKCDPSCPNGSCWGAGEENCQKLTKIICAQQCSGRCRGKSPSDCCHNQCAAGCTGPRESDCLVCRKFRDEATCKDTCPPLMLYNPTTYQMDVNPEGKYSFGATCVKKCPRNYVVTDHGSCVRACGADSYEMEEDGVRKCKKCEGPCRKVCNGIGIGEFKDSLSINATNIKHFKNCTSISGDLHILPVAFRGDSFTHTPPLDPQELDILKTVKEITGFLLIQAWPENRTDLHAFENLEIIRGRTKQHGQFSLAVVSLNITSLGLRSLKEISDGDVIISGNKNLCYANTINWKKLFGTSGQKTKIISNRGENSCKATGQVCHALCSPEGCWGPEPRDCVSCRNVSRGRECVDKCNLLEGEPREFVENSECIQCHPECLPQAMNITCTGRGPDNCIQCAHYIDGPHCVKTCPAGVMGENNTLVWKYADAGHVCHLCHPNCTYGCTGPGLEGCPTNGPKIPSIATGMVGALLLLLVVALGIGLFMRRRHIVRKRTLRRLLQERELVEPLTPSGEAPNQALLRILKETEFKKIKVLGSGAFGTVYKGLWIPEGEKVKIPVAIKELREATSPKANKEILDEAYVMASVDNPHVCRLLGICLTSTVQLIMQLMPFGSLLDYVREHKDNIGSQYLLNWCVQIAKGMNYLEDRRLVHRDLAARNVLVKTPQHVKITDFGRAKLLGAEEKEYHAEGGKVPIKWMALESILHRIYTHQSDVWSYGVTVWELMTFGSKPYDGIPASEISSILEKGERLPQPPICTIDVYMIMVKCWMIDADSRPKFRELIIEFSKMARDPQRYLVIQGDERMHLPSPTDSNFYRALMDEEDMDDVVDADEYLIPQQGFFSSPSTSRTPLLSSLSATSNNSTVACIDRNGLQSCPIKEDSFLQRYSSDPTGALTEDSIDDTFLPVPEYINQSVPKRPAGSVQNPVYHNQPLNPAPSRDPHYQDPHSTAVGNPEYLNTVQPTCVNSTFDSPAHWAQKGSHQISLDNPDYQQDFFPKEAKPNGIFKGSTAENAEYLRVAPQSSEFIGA

| Structure (SMILES) | IC50 [1] [nM] | IC50 [2] [nM] | IC50 [3] [nM] | GI50 (BaF3 [4]; Mus musculus, BaF3) [nM] | GI50 (BaF3 [5]; Mus musculus, BaF3) [nM] | GI50 (BaF3 [6]; Mus musculus, BaF3) [nM] | GI50 (BaF3 [4]) [nM] | GI50 (BaF3 [5]) [nM] | GI50 (BaF3 [6]) [nM] |
| --- | --- | --- | --- | --- | --- | --- | --- | --- | --- |
| CCNS(=O)(=O)c1cnc(Nc2ccnc(-c3cnn(S(=O)(=O)C4CC4)c3)n2)cc1N[C@@H](C)CC | > 5000 | 4880 | > 5000 |  |  |  |  |  |  |
| CC[C@H](C)Nc1cc(Nc2ccnc(-c3cnn(S(=O)(=O)C4CC4)c3)n2)ncc1C(=O)NC1CCOCC1 |  |  |  | 156 | 452 | 1660 |  |  |  |
| CC[C@H](C)Nc1cc(Nc2ccnc(-c3cnn(S(=O)(=O)C4CC4)c3)n2)ncc1C(=O)N(C)C | 450 | 300 | > 5000 |  |  |  |  |  |  |
| CC[C@H](C)Nc1cc(Nc2ccnc(-c3cnn(S(=O)(=O)C4CC4)c3)n2)ncc1C(=O)NCCC(F)F |  |  |  | 35 | 81 | 1080 |  |  |  |
| CC[C@H](C)Nc1cc(Nc2ccnc(-c3cnn(S(=O)(=O)C4CC4)c3)n2)ncc1C(=O)N1CC(C(C)(C)O)C1 | 30 | 22 | 235 |  |  |  |  |  |  |
| C=CC(=O)Nc1cc(Nc2nccc(-c3cn(C)c4ccccc34)n2)c(OC)cc1N(C)CCN(C)C [OSIMERTINIB] |  |  |  |  |  |  | 2060 | 1290 | 107 |
| CC(C)Oc1cc(Nc2ccnc(-c3cnn(S(=O)(=O)C4CC4)c3)n2)ncc1C(=O)N1CC(C(C)(C)O)C1 | > 5000 | > 5000 | > 5000 |  |  |  |  |  |  |

Further compounds by falling IC50 [1], results first:

| IC50 [1] [nM] | IC50 [2] [nM] | IC50 [3] [nM] | GI50 (BaF3 [4]; Mus musculus, BaF3) [nM] | GI50 (BaF3 [5]; Mus musculus, BaF3) [nM] | GI50 (BaF3 [6]; Mus musculus, BaF3) [nM] | GI50 (BaF3 [4]) [nM] | GI50 (BaF3 [5]) [nM] | GI50 (BaF3 [6]) [nM] | Structure (SMILES) |
| --- | --- | --- | --- | --- | --- | --- | --- | --- | --- |
| 72 | 51 | 552 |  |  |  |  |  |  | CC(C)Nc1cc(Nc2ccnc(-c3cnn(S(=O)(=O)C4CC4)c3)n2)ncc1C(=O)N1CC(C(C)(C)O)C1 |
| 13 | 11 | 212 |  |  |  |  |  |  | CCC(=O)c1cnc(Nc2ccnc(-c3cnn(S(=O)(=O)C4CC4)c3)n2)cc1N[C@@H](C)CC |
| 11 | 10 | 265 | 193 | 446 | 1220 |  |  |  | CC[C@H](C)Nc1cc(Nc2ccnc(-c3cnn(S(=O)(=O)C4CC4)c3)n2)ncc1C(=O)NCCN(C)C |
| 6 | 5.6 | 77 | 72 | 191 | 1270 |  |  |  | CCNC(=O)c1cnc(Nc2ccnc(-c3cnn(S(=O)(=O)C4CC4)c3)n2)cc1N[C@@H](C)CC |
| 4.5 | 3.7 | 55 | 56 | 129 | 1050 |  |  |  | CC[C@H](C)Nc1cc(Nc2ccnc(-c3cnn(S(=O)(=O)C4CC4)c3)n2)ncc1C(=O)NCCCF |
| 3.6 | 3.6 | 45 | 68 | 163 | 927 |  |  |  | CC[C@H](C)Nc1cc(Nc2ccnc(-c3cnn(S(=O)(=O)C4CC4)c3)n2)ncc1C(=O)NC |

Source: ChEMBL document CHEMBL5356962, “Synthesis, activity, and their relationships of 2,4-diaminonicotinamide derivatives as EGFR inhibitors targeting C797S mutation” (Bioorg Med Chem Lett, 2024)
